Our source for the IC50 values is US20250353864A1, “INDAZOLE CONTAINING MACROCYCLES AND THEIR USE” (BLOSSOMHILL THERAPEUTICS, INC., priority 2022, published 2025).

Holding throughout (type): biochemical
The target of one assay is CLK1 (Homo sapiens (Human), UniProt P49759). The assay is described as follows: Inhibition of CLK1 kinase activity evaluated at Nanosyn (ADP-Glo). As to conditions: ADP-Glo luminescence. On the procedure: (§1) Inhibition of CLK, CLK2, CLK3 and CLK4 Kinase Activity Evaluated at Nanosyn
(§2) Kinase protein and substrate were pre-diluted in the HEPES assay buffer (100 mM HEPES, pH 7.5, 0.01% Triton X-100, 0.1% BSA, 5 mM MgCl2, […] DTT, 10 Sodium Orthovanadate, […] Beta-Glycerophosphate) dispensed into 384 well plate (5 μL per well). Control samples (0%-inhibition in the absence of inhibitor, DMSO only) and 100%-inhibition (in the absence of enzyme) were assembled in replicates of six and were used to calculate %-inhibition in the presence of compounds. Test compounds were added to the protein samples by acoustic dispensing (Labcyte Echo550). Concentration of DMSO was equalized to 1% in all samples. Reactions were initiated by addition of ATP by acoustic dispensing (Labcyte Echo550) and incubated according to assay specific incubation time. After incubation. 5 μL of Promega ADP-Glo reagent was added and incubated for 40 minutes. After 40 minutes, 10 uL of Promega kinase detection reagent was added. After 10 min of incubation with Kinase detection reagent, the luminescence was read on microplate reader (Biotek Synergy).

For the next assay, the target named is CLK4 (Homo sapiens (Human), UniProt Q9HAZ1). Kind of assay: Inhibition of CLK4 kinase activity evaluated at Nanosyn (ADP-Glo). To be noted: ADP-Glo luminescence. On the procedure: as §1, §2
Another assay has as its target CLK3 (Homo sapiens (Human), UniProt P49761). The assay is described as follows: Inhibition of CLK3 kinase activity evaluated at Nanosyn (ADP-Glo). To be noted: ADP-Glo luminescence. As for the experimental part:
as §1, §2

The target in the next assay is CLK2 (Homo sapiens (Human), UniProt P49760). The assay is described as follows: Inhibition of CLK2 kinase activity evaluated at Nanosyn (ADP-Glo). To be noted: ADP-Glo luminescence. On the procedure: as §1, §2
A further assay has as its target EGFR WT (Homo sapiens (Human), UniProt P00533). The assay is described as follows: HotSpot radiometric kinase assay (Reaction Biology), EGFR WT. To be noted: 10 μM ATP. The gist of the method: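 10 μM ATP (33P-labelled, final); 120 min RT; P81 filter capture, 0.75% phosphoric acid washes. Cpd preincubated ~20 min with enzyme/substrate, 20 mM Hepes pH 7.5, 10 mM MgCl2, 1% DMSO. IC50 by curve fit.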

In the next assay the target is EGFR (D770_N771insNPG) (Homo sapiens (Human), UniProt P00533, INS770NPG). The assay is described as follows: HotSpot radiometric kinase assay, EGFR (D770_N771insNPG). As to conditions: 10 μM ATP, read-out: EGFR (Δ770_N771insNPG) IC50. In outline: (§3)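 IC50 values come from curve fits of ^33P incorporation captured on P81 filters after acid washing. Kinase reactions ran 120 min at room temperature with 10 μM ATP, added about 20 min after compound. Buffer was Hepes pH 7.5 containing Mg, DTT and 1% DMSO.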
EGFR (D770_N771insNPG), sequence (P00533 other isoform, or with tags, fused parts or gaps del 1-668/ins NPG behind 770 limits assumed): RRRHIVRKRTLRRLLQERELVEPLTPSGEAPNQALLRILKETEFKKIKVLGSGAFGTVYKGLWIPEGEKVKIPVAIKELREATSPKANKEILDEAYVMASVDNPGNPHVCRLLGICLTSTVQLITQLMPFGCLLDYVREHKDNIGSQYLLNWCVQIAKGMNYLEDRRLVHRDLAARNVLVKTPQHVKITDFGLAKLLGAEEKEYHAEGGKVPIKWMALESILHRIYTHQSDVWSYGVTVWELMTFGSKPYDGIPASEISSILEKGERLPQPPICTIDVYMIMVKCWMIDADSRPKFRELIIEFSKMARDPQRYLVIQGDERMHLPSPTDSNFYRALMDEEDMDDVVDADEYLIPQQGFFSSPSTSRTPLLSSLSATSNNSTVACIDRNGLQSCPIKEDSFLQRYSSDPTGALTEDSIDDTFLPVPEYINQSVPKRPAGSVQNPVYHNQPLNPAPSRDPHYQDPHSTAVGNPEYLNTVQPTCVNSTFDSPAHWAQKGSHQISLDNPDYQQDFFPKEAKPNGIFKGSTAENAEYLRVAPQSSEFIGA

The target in assay [1] is EGFR Δ746-750/C797S mutant (Homo sapiens (Human), UniProt P00533, C797S/DEL746-750). The assay is described as follows: HotSpot radiometric kinase assay, EGFR Δ746-750/C797S mutant. As to conditions: 10 μM ATP. In outline:
as §3

For a further assay, the target named is EGFR L858R/T790M mutant (Homo sapiens (Human), UniProt P00533, L858R/T790M). Kind of assay: HotSpot radiometric kinase assay, EGFR L858R/T790M mutant. As to conditions: 10 μM ATP. In outline:
as §3

Another assay concerns the target EGFR Δ746-750 mutant (Homo sapiens (Human), UniProt P00533, DEL746-750). The assay is described as follows: HotSpot radiometric kinase assay, EGFR Δ746-750 mutant. To be noted: 10 μM ATP. The gist of the method:
as §3

The target in another assay is EGFR L858R mutant (Homo sapiens (Human), UniProt P00533, L858R). Kind of assay: HotSpot radiometric kinase assay, EGFR L858R mutant. To be noted: 10 μM ATP. In outline:
as §3

For assay [2], the target named is EGFR L858R/T790M/C797S mutant (Homo sapiens (Human), UniProt P00533, C797S/L858R/T790M). Kind of assay: HotSpot radiometric kinase assay, EGFR L858R/T790M/C797S mutant. As to conditions: 10 μM ATP. The gist of the method: as §3
EGFR L858R/T790M/C797S mutant, sequence (P00533 25-1210 T790M/C797S/L858R): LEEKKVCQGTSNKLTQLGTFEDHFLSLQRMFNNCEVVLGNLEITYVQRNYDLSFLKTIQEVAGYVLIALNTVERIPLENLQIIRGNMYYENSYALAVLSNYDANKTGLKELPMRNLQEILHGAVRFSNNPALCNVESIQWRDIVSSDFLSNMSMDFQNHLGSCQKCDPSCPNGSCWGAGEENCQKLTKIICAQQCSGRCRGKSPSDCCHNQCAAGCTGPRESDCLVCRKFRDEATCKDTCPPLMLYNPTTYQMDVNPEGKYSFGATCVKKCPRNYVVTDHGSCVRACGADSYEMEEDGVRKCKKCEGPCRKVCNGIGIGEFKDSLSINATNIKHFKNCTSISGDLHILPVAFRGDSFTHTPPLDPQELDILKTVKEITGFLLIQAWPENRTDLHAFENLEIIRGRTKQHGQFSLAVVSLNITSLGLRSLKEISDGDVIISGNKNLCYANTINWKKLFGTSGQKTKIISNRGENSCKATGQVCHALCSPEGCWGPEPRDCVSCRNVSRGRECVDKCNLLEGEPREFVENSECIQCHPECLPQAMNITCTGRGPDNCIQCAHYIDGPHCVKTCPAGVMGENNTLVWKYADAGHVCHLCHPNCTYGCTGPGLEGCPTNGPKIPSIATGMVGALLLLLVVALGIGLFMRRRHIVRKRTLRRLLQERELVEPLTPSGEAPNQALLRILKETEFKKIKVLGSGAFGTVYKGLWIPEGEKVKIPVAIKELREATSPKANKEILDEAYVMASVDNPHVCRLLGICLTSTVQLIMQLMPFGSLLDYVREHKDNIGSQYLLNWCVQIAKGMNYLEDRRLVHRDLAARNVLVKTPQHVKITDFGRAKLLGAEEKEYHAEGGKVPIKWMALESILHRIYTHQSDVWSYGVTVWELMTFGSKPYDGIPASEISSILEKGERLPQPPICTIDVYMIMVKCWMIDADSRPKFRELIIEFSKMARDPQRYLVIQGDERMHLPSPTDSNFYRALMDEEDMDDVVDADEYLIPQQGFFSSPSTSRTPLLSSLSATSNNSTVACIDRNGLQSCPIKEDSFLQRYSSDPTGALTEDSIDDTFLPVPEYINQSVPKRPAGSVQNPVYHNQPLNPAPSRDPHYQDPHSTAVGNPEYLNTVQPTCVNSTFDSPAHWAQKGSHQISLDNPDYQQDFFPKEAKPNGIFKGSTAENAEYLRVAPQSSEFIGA

EGFR Δ746-750/C797S mutant, sequence (P00533 other isoform, or with tags, fused parts or gaps C797S/del 1-668/del 746-750 limits assumed): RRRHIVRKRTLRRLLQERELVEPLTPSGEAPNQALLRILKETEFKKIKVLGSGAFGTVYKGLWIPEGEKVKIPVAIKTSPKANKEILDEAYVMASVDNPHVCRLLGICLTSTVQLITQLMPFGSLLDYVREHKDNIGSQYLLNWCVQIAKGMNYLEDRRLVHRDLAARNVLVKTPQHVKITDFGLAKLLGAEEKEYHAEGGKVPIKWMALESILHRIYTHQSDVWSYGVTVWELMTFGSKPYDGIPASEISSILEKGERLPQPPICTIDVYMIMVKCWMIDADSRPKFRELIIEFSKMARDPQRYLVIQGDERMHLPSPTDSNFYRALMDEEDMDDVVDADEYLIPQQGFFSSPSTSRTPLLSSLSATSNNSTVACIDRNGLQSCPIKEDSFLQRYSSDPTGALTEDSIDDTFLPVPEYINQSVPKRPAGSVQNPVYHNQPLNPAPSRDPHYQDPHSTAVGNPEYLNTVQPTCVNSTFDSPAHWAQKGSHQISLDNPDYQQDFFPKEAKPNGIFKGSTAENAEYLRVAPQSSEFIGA
EGFR L858R/T790M mutant, sequence (P00533 25-1210 T790M/L858R): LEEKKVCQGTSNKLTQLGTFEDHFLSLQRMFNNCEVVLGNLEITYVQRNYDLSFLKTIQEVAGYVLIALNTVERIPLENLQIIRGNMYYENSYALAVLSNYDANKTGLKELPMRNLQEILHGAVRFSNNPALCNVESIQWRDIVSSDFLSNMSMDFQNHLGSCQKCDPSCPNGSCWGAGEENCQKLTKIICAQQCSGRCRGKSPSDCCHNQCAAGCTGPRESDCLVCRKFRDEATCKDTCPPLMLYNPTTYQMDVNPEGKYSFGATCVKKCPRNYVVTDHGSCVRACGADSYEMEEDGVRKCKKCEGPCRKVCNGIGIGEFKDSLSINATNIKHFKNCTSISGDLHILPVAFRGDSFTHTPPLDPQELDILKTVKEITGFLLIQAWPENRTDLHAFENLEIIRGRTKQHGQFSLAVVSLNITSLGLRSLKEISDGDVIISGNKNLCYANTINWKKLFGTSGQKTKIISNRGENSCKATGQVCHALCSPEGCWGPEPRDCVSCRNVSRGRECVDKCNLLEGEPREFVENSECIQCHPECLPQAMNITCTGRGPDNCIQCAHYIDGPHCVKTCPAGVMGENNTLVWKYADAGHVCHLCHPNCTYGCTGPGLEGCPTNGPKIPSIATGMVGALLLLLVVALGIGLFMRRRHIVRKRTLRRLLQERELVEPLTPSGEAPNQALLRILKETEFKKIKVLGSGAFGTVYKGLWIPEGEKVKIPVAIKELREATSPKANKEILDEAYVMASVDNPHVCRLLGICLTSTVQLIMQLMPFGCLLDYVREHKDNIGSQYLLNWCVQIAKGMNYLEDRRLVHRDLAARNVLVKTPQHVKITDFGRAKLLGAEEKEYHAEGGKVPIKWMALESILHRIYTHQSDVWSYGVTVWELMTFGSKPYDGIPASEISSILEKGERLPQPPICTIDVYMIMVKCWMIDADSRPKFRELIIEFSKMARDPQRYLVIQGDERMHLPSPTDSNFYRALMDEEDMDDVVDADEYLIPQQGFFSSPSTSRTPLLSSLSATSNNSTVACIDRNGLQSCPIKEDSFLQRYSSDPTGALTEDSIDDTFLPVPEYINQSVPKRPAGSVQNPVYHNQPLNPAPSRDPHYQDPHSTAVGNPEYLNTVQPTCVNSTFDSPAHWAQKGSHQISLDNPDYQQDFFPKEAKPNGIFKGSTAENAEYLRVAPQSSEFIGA
EGFR WT, sequence (P00533 25-1210): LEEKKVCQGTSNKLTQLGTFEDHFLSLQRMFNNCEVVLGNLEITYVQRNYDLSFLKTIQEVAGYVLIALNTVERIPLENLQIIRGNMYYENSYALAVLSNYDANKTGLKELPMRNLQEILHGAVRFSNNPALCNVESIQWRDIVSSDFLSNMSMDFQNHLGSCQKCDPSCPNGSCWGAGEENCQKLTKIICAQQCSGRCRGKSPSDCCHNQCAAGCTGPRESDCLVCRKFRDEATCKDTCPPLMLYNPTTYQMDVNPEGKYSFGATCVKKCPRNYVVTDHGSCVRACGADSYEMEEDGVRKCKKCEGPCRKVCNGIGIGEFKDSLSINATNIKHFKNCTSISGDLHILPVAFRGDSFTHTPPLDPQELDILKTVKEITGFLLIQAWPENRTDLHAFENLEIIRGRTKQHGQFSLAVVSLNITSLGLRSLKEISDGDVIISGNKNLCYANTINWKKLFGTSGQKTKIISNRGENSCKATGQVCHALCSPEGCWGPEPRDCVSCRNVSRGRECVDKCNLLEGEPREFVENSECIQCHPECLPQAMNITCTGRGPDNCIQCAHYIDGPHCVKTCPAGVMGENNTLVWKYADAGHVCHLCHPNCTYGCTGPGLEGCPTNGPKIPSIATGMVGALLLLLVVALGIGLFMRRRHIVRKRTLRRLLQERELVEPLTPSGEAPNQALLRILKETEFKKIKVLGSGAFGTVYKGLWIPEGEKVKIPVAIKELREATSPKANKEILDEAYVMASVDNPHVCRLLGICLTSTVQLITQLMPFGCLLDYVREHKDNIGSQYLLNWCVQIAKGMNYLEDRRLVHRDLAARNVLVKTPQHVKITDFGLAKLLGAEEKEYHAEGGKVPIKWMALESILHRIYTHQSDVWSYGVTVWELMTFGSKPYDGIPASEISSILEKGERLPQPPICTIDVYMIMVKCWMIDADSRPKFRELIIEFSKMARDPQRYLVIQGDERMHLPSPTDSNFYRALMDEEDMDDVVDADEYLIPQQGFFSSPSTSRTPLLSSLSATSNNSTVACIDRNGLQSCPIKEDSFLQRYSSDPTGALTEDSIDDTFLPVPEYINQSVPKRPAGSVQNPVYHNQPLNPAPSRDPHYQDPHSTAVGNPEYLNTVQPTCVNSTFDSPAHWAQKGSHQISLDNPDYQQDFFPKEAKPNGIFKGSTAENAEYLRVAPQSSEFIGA

In the case of `CC(C)Oc1nn(CCO)c2c1/C=C/c1n[nH]c3ccc(cc13)-c1cnn(C)c1O[C@@H](C)CN(C)[C@H]2C` [Example 224, 2-{(10S,13S,17E)-8,10,12,13-tetramethyl-16-[(propan-2-yl)oxy]-2,8,10,11,12,13-hexahydro-14H-3,5-ethenotripyrazolo[3,4-f:3′,4′-j:4″,3″-n][1,4]oxazacyclopentadecin-14-yl}ethan-1-ol], the IC50 was determined as 0.00069 µM on CLK1, 0.00146 µM at CLK4, 0.253 µM at CLK3 and 0.00116 µM on CLK2.
With `C#Cc1nn(C)c2c1-c1ccc3[nH]nc(c3c1)/C=C/c1c(OCC)nn(CCO)c1CN(C)C[C@H](C)O2` [Example 292, 2-[(10S,17E)-16-ethoxy-6-ethynyl-8,10,12-trimethyl-2,8,10,11,12,13-hexahydro-14H-3,5-ethenotripyrazolo[3,4-f:3′,4′-j:4″,3″-n][1,4]oxazacyclopentadecin-14-yl]ethan-1-ol], the IC50 at CLK1 was 0.00101 µM; on CLK4, 0.00136 µM; on CLK3 it was 1 µM; on CLK2 it was 0.00487 µM.
As for `Cc1nn(C)c2c1/C=C/c1n[nH]c3ccc(cc13)-c1cnn(C)c1OCCN(C)C(=O)CO2` [Example 63, (19E)-8,12,16,18-tetramethyl-2,11,12,16-tetrahydro-8H,10H-3,5-ethenotripyrazolo[3,4-h:3′,4′-l:4″,3″- p][1,7,4]dioxazacycloheptadecin-13(14H)-one], the IC50 against EGFR WT was 0.782 µM; on EGFR (D770_N771insNPG) it was above 1 µM; in assay [1], 0.228 µM; against EGFR L858R/T790M mutant, 0.0433 µM; against EGFR Δ746-750 mutant, 0.296 µM; at EGFR L858R mutant, 0.828 µM. In assay [2], this compound came in with an IC50 of 0.0335 µM.
Turning to `CCc1nn(C)c2c1/C=C/c1n[nH]c3ccc(cc13)-c1cnn(C)c1CN(C)CCO2` [Example 110, (17E)-16-ethyl-8,10,14-trimethyl-2,9,10,11,12,14-hexahydro-8H-3,5-ethenotripyrazolo[3,4-f:4′,3′-j:4″,3″- n][1,4]oxazacyclopentadecine], the IC50 amounted to 0.15 µM against EGFR WT; 0.112 µM on EGFR (D770_N771insNPG); 0.0285 µM in assay [1]; 0.00499 µM at EGFR L858R/T790M mutant; 0.0144 µM at EGFR Δ746-750 mutant; 0.0304 µM on EGFR L858R mutant. Also, half-maximal inhibition in [2] (IC50) required 0.00854 µM.
Regarding `Cc1c2c(nn1[C@H]1C[C@@H](N(C)CCN(C)C)C1)OCCCOc1c(cnn1C)-c1ccc3[nH]nc(c3c1)/C=C/2` [Example 102, N^1—{(1s,3s)-3-[(17E)-8,16-dimethyl-2,8,11,12-tetrahydro-10H,15H-3,5-etheno[1,5]dioxacyclopentadecino[10,11-c:15,14-c′:6,7-c′]tripyrazol-15-yl]cyclobutyl}-N^1,N—,N^2-trimethylethane-1,2-diamine], the IC50 on EGFR WT was 0.0624 µM; on EGFR (D770_N771insNPG) it was 0.0945 µM; in [1], 0.0447 µM; at EGFR L858R/T790M mutant, 0.0041 µM; against EGFR Δ746-750 mutant it was 0.0481 µM; against EGFR L858R mutant it was 0.0254 µM. The same compound gave an IC50 in assay [2] of 0.0131 µM.
Regarding `CC(C)Oc1nn([C@@H](C)CO)c2c1/C=C/c1n[nH]c3ccc(cc13)-c1cnn(C)c1O[C@H](C)CN(C(C)C)C2` [Example 207, (2S)-2-{(10R,17E)-8,10-dimethyl-12-(propan-2-yl)-16-[(propan-2-yl)oxy]-2,8,10,11,12,13-hexahydro-14H-3,5-ethenotripyrazolo[3,4-f:3′,4′-j:4″,3″- n][1,4]oxazacyclopentadecin-14-yl}propan-1-ol], the IC50 (against EGFR WT; at EGFR (D770_N771insNPG); in assay [1]; against EGFR L858R/T790M mutant; at EGFR Δ746-750 mutant; against EGFR L858R mutant) was above 1 µM each time. Moreover, the half-maximal inhibitory concentration (IC50) in [2] was above 1 µM.
For `Cc1nn([C@H]2CNC[C@@H]2O)c2c1/C=C/c1n[nH]c3ccc(cc13)-c1cnn(C)c1OCCCO2` (racemic) [Example 74, (rac)-4-[(17E)-8,16-dimethyl-2,8,11,12-tetrahydro-10H,14H-3,5-etheno[1,5]dioxacyclopentadecino[10,11-c:15,14-c′:6,7-c″ ]tripyrazol-14-yl]pyrrolidin-3-ol], the IC50 against EGFR WT came to 0.086 µM; on EGFR (D770_N771insNPG) it was 0.109 µM; in [1], 0.0398 µM; at EGFR L858R/T790M mutant, 0.0125 µM; on EGFR Δ746-750 mutant, 0.0741 µM; against EGFR L858R mutant it was 0.0361 µM. The compound further came in with an IC50 in assay [2] of 0.0158 µM.
As for `Cc1c2c(nn1[C@H]1CCNC[C@@H]1O)OCCCOc1c(cnn1C)-c1ccc3[nH]nc(c3c1)/C=C/2` (racemic) [Example 81, (rac)-4-[(17E)-8,16-dimethyl-2,8,11,12-tetrahydro-10H,15H-3,5-etheno[1,5]dioxacyclopentadecino[10,11-c:15,14-c′:6,7-c″ ]tripyrazol-15-yl]piperidin-3-ol], the 50% inhibitory concentration (IC50) on EGFR WT is 0.0438 µM; on EGFR (D770_N771insNPG), 0.0403 µM; in assay [1] it was 0.0334 µM; at EGFR L858R/T790M mutant, 0.0017 µM; at EGFR Δ746-750 mutant it was 0.0296 µM; at EGFR L858R mutant it was 0.0168 µM. The same compound yielded an IC50 in assay [2] of 0.00742 µM.
`Cn1ncc2c1OCCN1CC[C@@H](Oc3ccc(C(C)(C)O)cc3/C=C/c3n[nH]c4ccc-2cc34)C1=O` [Example 135, (10R,16E)-14-(2-hydroxypropan-2-yl)-3-methyl-3,5,6,9,10,19-hexahydro-8H-20,22-etheno-7,10-methanodipyrazolo[3,4-i:4′,3′-m][1,8,5]benzodioxazacyclooctadecin-25-one]: the IC50 on EGFR WT was 0.829 µM; at EGFR (D770_N771insNPG) it was 0.802 µM; in assay [1], 0.0977 µM; at EGFR L858R/T790M mutant, 0.02 µM; against EGFR Δ746-750 mutant, 0.0483 µM; against EGFR L858R mutant, 0.128 µM. This compound came in with an IC50 in [2] of 0.0386 µM.
Take `CCOc1ccc2c(n1)/C=C/c1n[nH]c3ccc(cc13)-c1cnn(C)c1O[C@@H](C)CN(C)C2` [Ex. 267, (10S,18E)-16-ethoxy-8,10,12-trimethyl-2,8,10,11,12,13-hexahydro-3,5-ethenodipyrazolo[3,4-j:4′,3′-n]pyrido[3,2-f][1,4]oxazacyclopentadecine]: the 50% inhibitory concentration (IC50) against EGFR WT is 0.769 µM; at EGFR (D770_N771insNPG) it was 1.23 µM; in assay [1] it was 0.107 µM; against EGFR L858R/T790M mutant, 0.00831 µM; at EGFR Δ746-750 mutant, 0.117 µM; on EGFR L858R mutant, 0.241 µM. The compound also displayed an IC50 in [2] of 0.00542 µM.
`CN1CCN(Cc2ccc3c(c2)O[C@@H]2CCN(CCOc4c(cnn4C)-c4ccc5[nH]nc(c5c4)/C=C/3)C2=O)CC1` [Example 92, (10R,16E)-3-methyl-13-[(4-methylpiperazin-1-yl)methyl]-3,5,6,9,10,19-hexahydro-8H-20,22-etheno-7,10-methanodipyrazolo[3,4-i:4′,3′-m][1,8,5]benzodioxazacyclooctadecin-25-one]: the IC50 against EGFR WT amounted to 0.0145 µM; on EGFR (D770_N771insNPG) it was 0.00634 µM; in assay [1], 0.00665 µM; against EGFR L858R/T790M mutant, 0.00041 µM; against EGFR Δ746-750 mutant, 0.00795 µM; against EGFR L858R mutant it was 0.0041 µM. The compound also yielded an IC50 in [2] of 0.00326 µM.
In the case of `CCOc1nn(CCO)c2c1/C=C/c1n[nH]c3ccc(cc13)-c1cnn(C)c1O[C@H](C)CN(C(C)=O)C2` [Example 217, 1-[(10R,17E)-16-ethoxy-14-(2-hydroxyethyl)-8,10-dimethyl-2,8,10,11,13,14-hexahydro-12H-3,5-ethenotripyrazolo[3,4-f:3′,4′-j:4″,3″-n][1,4]oxazacyclopentadecin-12-yl]ethan-1-one], the concentration for half-maximal inhibition (IC50) on EGFR WT turned out to be 0.0717 µM; on EGFR (D770_N771insNPG), 0.107 µM; in assay [1], 0.00194 µM; against EGFR L858R/T790M mutant, 0.00069 µM; against EGFR Δ746-750 mutant, 0.00361 µM; against EGFR L858R mutant, 0.0371 µM. In addition, half-maximal inhibition in assay [2] (IC50) required 0.00142 µM.
